# Source: PMC6957531, “A butanolic fraction from the standardized stem extract of Cassia occidentalis L delivered by a self-emulsifying drug delivery system protects rats from glucocorticoid-induced osteopenia and muscle atrophy” (Scientific Reports, 2020)
# Legend:
# [1] = design: method as in PMID 30703497; conditions: cited from earlier work
# [2] = Plasma levels of osteogenic compounds after single oral dosing of CSE-Bu or CSE-BuF (LC-MS/MS); conditions: rat; for AUC / Cmax / increase of relative bioavailability by CSE-BuF compared to CSE-Bu / %Fr (relative bioavailability): male, Sprague Dawley; for AUC / Cmax / %Fr (relative bioavailability): 250 mg/kg
# Experimental: All analytes were analyzed using API-QTRAP 4000 mass spectrometer (ABSciex, Canada) equipped with electrospray ionization (ESI) source in negative ion ([M-H]^−) mode [apigenin, isovitexin, emodin, luteolin, 3′,4′,7-trihydroxyflavone (THF), and fenofibric acid (FFA)] and quantified using Analyst 1.6 software (Applied Biosystems, MDS Sciex Toronto, Canada). Quantification was performed by multi-reaction monitoring (MRM), by monitoring the parent ion to product ion transition of 269.3/116.9 for apigenin, 431.2/311 for isovitexin, 269.1/224.9 for emodin, 284.9/133 for luteolin, 268.9/132.8 for THF, 316.9/230.9 for FFA (IS for apigenin, isovitexin, emodin, luteolin, and THF). Compound parameters, viz. declustering potential (V), entrance potential (V), collision energy, collision exit potential were −76, −10, −49, and −5 for apigenin; −100, −10, −20 and −15 for isovitexin; −100, −10, −40, and −10 for emodin; −100, −10, −50, and −20 for luteolin; −100, −10, −40, and −10 for THF; −55, −10, −12 and −10 for FFA; respectively. Source parameters, viz. curtain gas (psi), collision gas, ionspray voltage (V), ion source temperature (°C), nebulizer gas (GS1, psi) and turbo ion gas (GS2, psi) for apigenin, isovitexin, emodin, luteolin, THF, and FFA were 30, high, −4500, 500, 50, 50 respectively.
# Shimadzu UFLC system (Kyoto, Japan) equipped with a binary pump (LC-20AD), a degasser (DGU-20A3), an autosampler (SIL-HTc) and a column oven (CTO-20AC) was used to inject the samples. The chromatographic separation of apigenin, isovitexin, emodin, luteolin, THF and FFA were performed on Phenomenex Luna (C18 (2), 100A, 150 × 4.6 mm, 3 μ) column with a mobile phase consisting of methanol: 10 mM ammonium acetate, 95:05 (v/v) at 0.6 mL/min flow rate. The temperature of the column oven was set at 40 °C during analysis. 10 µL samples were injected for quantification.
# For extraction of apigenin, isovitexin, emodin, luteolin, THF, liquid-liquid extraction (LLE) method was applied for processing rat plasma. Plasma (100 µL) was incubated with 50 µL β-glucuronidase enzyme (2 mg/mL in 100 mM ammonium acetate buffer pH 5), and 50 µL ammonium acetate buffer (100 mM, pH 5) for 2 h at 37°C on water shaking bath. 200 µL ACN containing IS (FFA, 100 ng/mL) was added to plasma, vortex for 15 sec, and then 100 µL 0.1% formic acid (in 10 mM ammonium formate) was added. After vortexing for 5 min on vortexer (IKA^(R) VIBRAX VXR basic) at 1200 rpm, 2 mL ethyl acetate was added. The mixture was again vortexed for 10 min and then centrifuged at 10000 rpm for 5 min. The supernatant (1.5 mL) was transferred into Ria vial and completely dried in a TurboVap. The dried residue was reconstituted with 100 µL of mobile phase and analyzed by LC-MS/MS[44].
# For determination of osteogenic compounds in the plasma of rats given CSE-Bu and CSE-BuF, we recruited male Sprague Dawley (SD) rats (220 ± 20 g) and were fasted overnight with free access to water. Rats were divided into 2 groups consisting of 6/group. One group received CSE-Bu (250 mg/kg/oral) and the other received CSE-BuF (250 mg/kg/oral). Blood (300 µL) was collected into 0.5 ml centrifuged tube containing EDTA at 0.25, 0.5, 1, 2, 4, 8, 12, 24, and 48 h and plasma was separated followed by centrifugation at 10000 rpm for 10 min and stored at -80 °C for further analysis. For pharmacokinetic analysis, plasma concentration versus time was plotted and analyzed by non-compartmental analysis method using WinNonlin (Pharsight, Mountain View, CA) software.
# [3] = system: bone; conditions: cited from earlier work
# [4] = system: GILZ mRNA in thymus and bone; serum IL-1β; test: Evaluation of the anti-inflammatory response (GILZ mRNA, serum IL-1β); design: species or system male SD rats; conditions: rat, in vivo
# Experimental: (§1) The serum samples were collected from blood by centrifugation at 3000 rpm. Serum cross-linked C-telopeptide of Type I collagen (CTX-I), procollagen type I N-terminal propeptide (PINP), sclerostin (SOST), interleukin 1 beta (IL-1β) levels were determined by ELISA (MyBioSource, USA) following the manufacturer’s protocols.
# Primer sequences are listed below:
# Serum IL-1β level were measured to evaluate the effect of CSE-BuF on glucocorticoid-mediated anti-inflammatory response.
# [5] = assay type: in vivo
# Experimental: (§2) All treatments lasted for 4 weeks.
# Body composition of live rats was analyzed using an Echo-MRI Body Composition Analyzer E26-226-RM (EchoMRI LLC, USA) as per our previously described method[14],[47]–[50].
# [6] = system: femur diaphysis; test: GIO model: bone dynamic histomorphometry (double calcein labeling); assay type: in vivo, male SD rats; conditions: versus control (Veh)
# Experimental: as §2
# For dynamic histomorphometric measurements, double calcein labeling was performed with an interval of 10 days between two calcein injections. We measured the periosteal perimeter, single-labeled surface (sLS), double labeled surface (dLS), and interlabeled thickness (IrLTh).
# [7] = system: OCN, TRAP, DMP-1, MEPE, RANKL mRNA in bones; test: GIO model: osteoblast-, osteoclast- and osteocyte-specific genes in bones by qPCR; conditions: rat, in vivo
# [8] = system: L5 vertebra and femur diaphysis; test: GIO model: bone strength (L5 compression, femur 3-point bending); assay type: in vivo, male SD rats
# Experimental: as §2
# Bone mechanical strength was measured by three-point bending test for femur diaphysis and compression test for L5 vertebrae using a bone strength tester TK 252 C (Muromachi Kikai Co. Ltd, Tokyo, Japan) according to a previously published protocol[14],[52].
# [9] = system: serum PINP, CTX-I, sclerostin (SOST); test: GIO model: serum biochemical markers by ELISA; assay type: in vivo, male SD rats
# Experimental: as §2, §1
# [10] = system: miR-29a, miR-17, miR-20a; test: GIO model: miRNA expression in bones (TaqMan assay); design: species or system male SD rats; conditions: rat, in vivo
# Excerpt: as §2
# TaqMan assay (Thermo Fisher Scientific, USA) was used to determine miRNA expression in bones. Specific assay was designed based on published sequence using Thermo Fisher miRNA assay design tool. Assay ID of different miRNA was; hsa-miR-29a (OO2112), hsa-miR-17 (OO2308), hsa-miR-20a (OOO580) and U6 snRNA (OO1973)[54].
# [11] = system: gastrocnemius muscle; test: GIO model: muscle histomorphometry; assay type: in vivo, male SD rats; conditions: versus control
# Experimental: as §2
# Gastrocnemius muscles were carefully dissected and stored in chilled PBS for 48 h. Tissues were then transferred to 30% sucrose solution (in PBS) at 4 °C until they sank to the bottom. Tissues were embedded in OCT tissue freezing medium (Leica Bio systems, India) and cryo-sections (7 µm) were made using a Cryotome™ FSE Cryostat (Thermo Scientific). Tissue sections were collected on poly-L-lysine coated slides. For H&E staining, sections were rehydrated in PBS for 10 min and fixed in 10% formalin for 3 min. Then H&E staining was performed and mounted with DPX (Sigma). Quantitative analysis for determining cross-sectional area and Feret’s diameter of the muscle fibers were performed using Image J software[50],[56].
# [12] = system: atrogin 1 and MuRF1 in gastrocnemius muscle; test: GIO model: immunoblotting of muscle atrogenes; design: species or system male SD rats; conditions: rat, in vivo
# Experimental: as §2
# Gastrocnemius muscle samples were collected from each group and protein lysates were prepared to determine the levels of muscle atrogenes [atrogin 1], and muscle ring finger protein (MuRF1). Relative expression of these proteins was detected by immunoblot analysis using specific antibodies againts atrogin 1 (Abcam; 1:1000 dilution), MuRF1 (Santa Cruz Biotechnology; 1:1000 dilution), and GAPDH (Merck Millipore; 1:1000 dilution). Densitometric analyses of immunoblots were performed using ImageJ software.
# [13] = in vivo, AUC, CSE-BuF at 250 mg/kg orally, rat plasma, Mean ± SD
# [14] = in vivo, CSE-BuF at 250 mg/kg orally, rat plasma, Mean ± SD
# [15] = 4 weeks, MP 5 mg/kg s.c. daily, CSE-BuF 50 mg/kg oral daily, mean ± SEM, n = 10/group
SMILES,"AUC [2, 13]","Cmax [2, 14]",plasma level after single oral dosing of CSE-Bu (in words) [2],plasma level after single oral dosing of CSE-BuF (in words) [2],"AUC ([2]; po, AUC)",Cmax ([2]; po),increase of relative bioavailability by CSE-BuF compared to CSE-Bu ([2]; po),%Fr (relative bioavailability) ([2]; po),in vivo bone conserving effect [3],further results
"O=c1cc(-c2ccc(O)cc2)oc2cc(O)c([C@@H]3O[C@H](CO)[C@@H](O)[C@H](O)[C@H]3O)c(O)c12 [Apigenin 6-C-glucoside Or Isovitexin, Apigenin 6-C-glucoside]",17.9 ± 10.4 ng·h/mL,7.74 ± 4.29 ng/mL,not detectable,detectable and measured in plasma,,,,,,"osteogenic effect in vitro among compounds of CSE-Bu [1]: best osteogenic effect in vitro; in vivo osteogenic effect ([3]; mice, ref unpublished data, S. Pal and N. Chattopadhyay): has in vivo osteogenic effect in mice"
"C[C@H]1C[C@@H]2[C@H]([C@@H](O)C[C@@]3(C)[C@H]2CC[C@]3(O)C(=O)CO)[C@@]2(C)C=CC(=O)C=C12 [MP, Methylprednisolone]",,,,,,,,,,"GILZ mRNA in thymus and bone [4]: robust increase; serum IL-1β [4]: suppressed; Body weight [5, 15]: 239.86 ± 5.71 gm; Fat Mass [5, 15]: 6.12 ± 0.58 %; Lean Mass [5, 15]: 71.96 ± 2.43 %; decrease of fat mass compared to control ([5]; rat, in vivo): 40%; decrease of lean mass compared to control ([5]; rat, in vivo): 11%; mineralizing surface (pMS/BS), mineral apposition rate (pMAR) and bone formation rate (pBFR/BS) [6]: significant decreases; RANKL mRNA in bones [7]: robust increase; TRAP mRNA in bones [7]: robust increase; mRNA levels of osteocyte markers DMP-1 and MEPE in bones [7]: significant decrease; osteocalcin (OCN) mRNA level in bones [7]: significantly suppressed; strength parameters (peak load, energy to failure and stiffness) [8]: decreased all strength parameters; serum sclerostin ([9]; rat, in vivo): significantly increased; serum CTX-I (bone resorption marker) ([9]; versus control (Veh)): increased; serum PINP (bone formation marker) ([9]; versus control (Veh)): suppressed; levels of miRNA 17, 20a and 29a in bones [10]: significant decreases; cross-sectional area and Feret's diameter of gastrocnemius muscle [11]: significantly reduced; atrogin and MuRF-1 protein levels in muscle [12]: increased"
"O=c1cc(-c2ccc(O)c(O)c2)oc2cc(O)ccc12 [3′,4′,7-trihydroxyflavone (THF), 3′,4′,7-trihydroxyflavone]",,,not detectable,detectable and measured in plasma,764 ± 382 ng·h/mL,201 ± 107 ng/mL,,,,
O=c1cc(-c2ccc(O)c(O)c2)oc2cc(O)cc(O)c12 [Luteolin],,,could be measured in plasma,increases,259 ± 144 ng·h/mL,,36%,136.94 ± 17.14%,in vivo bone conserving effect has been reported,AUC ([2]; po): 456.33 ± 131.28 ng·h/mL
Cc1cc(O)c2c(c1)C(=O)c1cc(O)cc(O)c1C2=O [Emodin],239 ± 31.1 ng·h/mL,29.2 ± 13 ng/mL,could be measured in plasma,increases,,,279%,379.68 ± 87.63%,in vivo bone conserving effect has been reported,"AUC ([2]; in vivo, AUC, CSE-Bu at 250 mg/kg orally, rat plasma, Mean ± SD): 69.3 ± 33.2 ng·h/mL; Cmax ([2]; in vivo, CSE-Bu at 250 mg/kg orally, rat plasma, Mean ± SD): 12.3 ± 3.8 ng/mL"
O=c1cc(-c2ccc(O)cc2)oc2cc(O)cc(O)c12 [Apigenin],,,not detectable,detectable and measured in plasma,2.2 ± 1.15 ng·h/mL,3.98 ± 3.03 ng/mL,,,in vivo bone conserving effect has been reported,
